One assay concerns the target T1, DYRK1A (Homo sapiens, UniProt Q13627).
T1 construct: purchased Promega
Nature of the assay: DYRK1A inhibition (ADP-Glo assay). The settings on record: FIG. 3. The assay is classed as biochemical. The protocol:
DYRK1A inhibition. IC50s for all compounds at DYRK1A were determined using an ADP-Glo™ assay kit (Promega) and DYRK1A enzyme system (Promega) following the manufacturer's protocol. In brief, 10 μL of DYRKtide substrate (1 mg/mL) and ATP (50 μM) in kinase reaction buffer (40 mM Tris HCl, 20 mM MgCl2, 0.1 mg/mL BSA, 50 μM DTT in DI water) was added to a solid white 96-well plate. Next, 5 μL of 5× compound solutions in kinase reaction buffer (5% DMSO) or 5% DMSO in kinase reaction buffer was added. Then 10 μL DYRK1A in kinase reaction buffer (2 ng/μL) was added and the plate was incubated at room temperature for 60 min before adding 25 μL ADP-Glo™ reagent. The plate was incubated for 40 min at room temperature. Subsequently, 50 μL of Kinase Detection Reagent was added, the plate was gently shaken for 1 min. and incubated away from light for 30-40 min. Finally, luminescence was measured using a BioTek Synergy HTX multi-mode reader (integration time=1 s). All data was normalized such that the luminescence produced by the lowest concentration treatment of each compound was set to 100% DYRK1A activity.
(In general: ADP-Glo first removes unused ATP, then detects ADP through luciferase.)

The subject of assay [1] is embryonic rat cortical cultures. Briefly: Total neurite length in embryonic rat cortical cultures. The assay is classed as cell-based. The settings on record: embryonic rat cortical cultures (DIV=0), treated for 72 h. The protocol: Each data point represents a well average from two independent cultures. Data are represented as mean f SEM. *p<0.05, **p<0.01, ***p<0.001, ****p<0.0001, as compared to the vehicle control following a one-way ANOVA with Dunnett's post hoc test. VEH=vehicle; DON=250 nM donepezil; OKA=30 nM okadaic acid.

A further assay addresses 5-HT2C (Homo sapiens, UniProt P28335). Nature of the assay: Radioligand ([3H]-LSD) competition binding assays, 5-HT2C versus 5-HT2A. The conditions noted are these: FIG. 4. The protocol:
Radioligands Binding Assays. Binding buffer consisted of 50 mM Tris HCl, 10 mM MgCl2, 0.1 mM EDTA disodium dihydrate in autoclaved deionized water. The solution was adjusted to pH 7.4 with […] NaOH(aq) and stored at 4° C. This solution was used for membrane preparation generation as well as in saturation and competition binding assays.
For the generation of membrane preparations, 15-cm plates of PSYLI2 cells (HEK293T cell line stably expressing psychLight2; mycoplasma free) or HEK293T cells (ATCCCRL-11268; mycoplasma free) lipofected with pCMV-GRAB_5-HT were grown in Dulbecco's Modified Eagle Media (DMEM) (Fisher, 11995073) containing 10% fetal bovine serum (Fisher, 26-140-079) and 1% penicillin/streptomycin (Fisher, 15140-163). When the cells were >90% confluent, the media was removed, and the cells were washed with Dulbecco's Phosphate Buffered Saline (DPBS, 15 mL) (ThermoFisher, #14190-250). Next, DMEM (15 mL) lacking fetal bovine serum and penicillin/streptomycin was added, and the cells were serum-starved for 4-12 h. All but ~5 mL of the media was removed from the plates before placing them on ice. […] The suspension was transferred to 2.0 mL Eppendorf tubes in 1.0 mL aliquots, saving a single aliquot of 0.25-0.50 mL suspension to use for quantification of protein concentration via a Bradford assay. […]

The structures appear in SMILES notation.

5-HT2C, sequence (P28335 33-458): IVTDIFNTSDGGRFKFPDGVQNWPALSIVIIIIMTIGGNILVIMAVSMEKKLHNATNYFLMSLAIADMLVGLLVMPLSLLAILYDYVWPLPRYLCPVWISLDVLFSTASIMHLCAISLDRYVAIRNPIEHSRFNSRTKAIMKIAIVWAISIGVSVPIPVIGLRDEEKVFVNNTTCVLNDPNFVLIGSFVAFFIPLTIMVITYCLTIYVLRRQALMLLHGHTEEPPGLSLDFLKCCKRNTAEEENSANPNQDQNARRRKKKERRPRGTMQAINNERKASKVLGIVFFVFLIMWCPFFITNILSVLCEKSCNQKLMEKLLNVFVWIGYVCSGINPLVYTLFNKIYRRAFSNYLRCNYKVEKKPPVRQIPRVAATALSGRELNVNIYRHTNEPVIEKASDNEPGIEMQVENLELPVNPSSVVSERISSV

As for `COc1ccc2c(c1)N(CCN(C)C)/C(=C/C(C)=O)S2.O=C(O)/C=C/C(=O)O` [HTW_B_14 fumarate, (Z)-1-(3-(2-(dimethylamino)ethyl)-5-methoxybenzo[d]thiazol-2(3H)-ylidene)propan-2-one Fumarate Salt (1:1)], on DYRK1A, the “inhibition of DYRK1A activity” value was “able to inhibit DYRK1A activity”. Also, the “average total neurite length per neuron” value in assay [1] was “significantly increase average total neurite length per neuron”. Further, the “affinity for 5-HT2C relative to 5-HT2A” value at 5-HT2C is on record as “higher affinity ligands for 5-HT2C than 5-HT2A”.

For the compound `COc1ccc2c3ccnc(C)c3n(CCN(C)C)c2c1.O=C(O)/C=C/C(=O)O` [HTW_A_8 fumarate, 2-(7-methoxy-1-methyl-9H-pyrido[3,4-b]indol-9-yl)-N,N-dimethylethan-1-amine Fumarate Salt (2:3)], at DYRK1A, the “inhibition of DYRK1A activity” value is “able to inhibit DYRK1A activity”. Besides, the “average total neurite length per neuron” value in assay [1] was “significantly increase average total neurite length per neuron”. For the same compound, on 5-HT2C, the “affinity for 5-HT2C relative to 5-HT2A” value is recorded as “higher affinity ligands for 5-HT2C than 5-HT2A”.

The values above are taken from patent US20260284018A1, “DUAL INHIBITORS OF DYRK1A AND 5-HT2 FOR TREATING A BRAIN DISORDER” (THE REGENTS OF THE UNIVERSITY OF CALIFORNIA, priority 2023, published 2026).
